Source: patent publication US10800784B2, “Nitrogen-containing heterocyclic amide compound and pharmaceutical use thereof” (Japan Tobacco Inc., priority 2018, dated 2020)
pIC50: −log10 of the molar value.

Key:
[1] = target: human PDHK1 (hPDHK1) (Homo sapiens (Human), UniProt Q15118); assay: Inhibitory action of PDHK1 activity in vitro (residual PDH activity after PDHK reaction); type: biochemical; details: PDH/hPDHK1 complex solution, PDHK reaction at room temperature for 45 min, NADH absorbance at 340 nm; read-out: hPDK1 IC50
Procedure: (§1) The inhibitory action of PDHK activity was assessed indirectly by measuring the residual PDH activity after PDHK reaction in the presence of a test compound.
(Inhibitory Action of PDHK1 Activity)
In the case of human PDHK1 (hPDHK1, NCBI Reference Database Accession number NM_002610.3), a 1.3 kbp fragment encoding this protein was isolated from human liver cDNA by polymerase chain reaction (PCR). Modified hPDHK1 cDNA wherein FLAG-Tag sequence was added to the N terminus was prepared by PCR and ligated to the NdeI/EcoRI site of pET-17b vector (Merck MGaA, model number 69663-3). The recombinant construct was transformed into Escherichia coli DH5a (TOYOBO, model number DNA-903). The recombinant clones were identified, and plasmid DNA was isolated and subjected to the DNA sequence analysis. One clone which had the expected nucleic acid sequence was selected for expression work.
For expression of hPDHK1 activity, Escherichia coli strain BL21(DE3) cells (Merck KGaA, model number 69450-4) were transformed with the pET17b vector containing modified hPDHK1 cDNA. The Escherichia coli were grown to an optical density 0.6 ([…]) at 30° C. Protein expression was induced by the addition of 500 μmol/L isopropyl-β-thiogalactopyranoside. The Escherichia coli were cultured at 20° C. for 17-18 hr and harvested by centrifugation.
The harvested Escherichia coli was resuspended in a suspension buffer (20 mmol/L N-(2-hydroxyethyl)piperazine-N′-2-ethanesulfonic acid-sodium hydroxide (HEPES-NaOH), 500 mmol/L sodium chloride, 1% ethylene glycol, and 0.1% polyoxyethylene-polyoxypropylene block copolymer (Pluronic F-68), complete, EDTA-free (pH 8.0)) and disrupted by a microfluidizer M-110H (MIZUHO INDUSTRIAL CO., LTD.) or ultrasonication. The precipitate was removed by centrifugation and the supernatant was added to DDDDK-tagged Protein PURIFICATION GEL (MBL, model number 3329). DDDDK-tagged Protein PURIFICATION GEL was washed with a washing buffer (20 mmol/L HEPES-NaOH, 500 mmol/L sodium chloride, 1% ethylene glycol, 0.1% pluronic F-68 (pH 8.0)) and the bound protein was eluted with elution buffer 1 (20 mmol/L HEPES-NaOH, 100 μg/mL peptide (amino acid sequence DYKDDDDK) (SEQ ID NO: 1), 500 mmol/L sodium chloride, 1% ethylene glycol, 0.1% pluronic F-68 (pH 8.0)).
The eluted fractions containing FLAG-Tagged protein were pooled, concentrated by an ultrafiltration method, added to a gel filtration column (HiLoad 26/60 Superdex 200 (GE Healthcare, model number 17-1070-01)), and eluted with elution buffer 2 (20 mmol/L HEPES-NaOH, 150 mmol/L sodium chloride, 0.5 mmol/L ethylenediaminetetraacetic acid (EDTA), 1% ethylene glycol, 0.1% pluronic F-68 (pH 8.0)). The eluted fractions were pooled and preserved at −80° C.
(§2) 0.025 U/mL PDH (porcine heart PDH complex, Sigma P7032) and 0.5 μg/mL hPDHK1 were mixed in an assay buffer (50 mmol/L 3-morpholinopropanesulfonic acid (pH 7.0), 20 mmol/L dipotassium hydrogen phosphate, 60 mmol/L potassium chloride, 2 mmol/L magnesium chloride, 0.4 mmol/L EDTA, 0.2% poloxamer, 2 mmol/L dithiothreitol), and the mixture was incubated at 4° C. overnight to obtain a PDH/hPDHK1 complex solution. In the assay buffer, 0.025 U/mL PDH was mixed and incubated at 4° C. overnight to prepare a PDH solution.
The test compounds were diluted with dimethyl sulfoxide (DMSO). To measure an inhibitory action of the test compound on the PDHK activity in the PDH/hPDHK1 complex solution, PDH/hPDHK1 complex solution (20 μL), test compound (1.5 μL) and 0.353 μmol/L ATP (diluted with assay buffer) (8.5 μL) were added to a 384 well microplate (Greiner Bio-One 781801) and PDHK reaction was performed at room temperature for 45 min (test compound well). DMSO (1.5 μL) was added to control wells instead of test compound. In addition, DMSO (1.5 μL) was added to blank wells instead of the test compound, and PDH solution was added instead of the PDH/hPDHK1 complex solution. […]

[2] = target: human PDHK2 (hPDHK2) (Homo sapiens (Human), UniProt Q15119); assay: Inhibitory action of PDHK2 activity in vitro (residual PDH activity after PDHK reaction); type: biochemical; details: for pIC50: PDH/hPDHK2 complex solution, PDHK reaction at room temperature for 45 min, NADH absorbance at 340 nm, read-out: kPDK2 IC50
Procedure: as §1
(Inhibitory Action of PDHK2 Activity)
In the case of human PDHK2 (hPDHK2, NCBI Reference Database Accession number NM_002611.4), modified hPDHK2 cDNA wherein FLAG-Tag sequence was added to the N terminus of hPDHK2 cDNA clone (pReceiver-M01/PDK2-GeneCopoeia) as the base was prepared by PCR and ligated to the NdeI/EcoRI site of pET-17b vector. The recombinant construct was transformed into Escherichia coli DH5a. The recombinant clones were identified, and plasmid DNA was isolated and subjected to the DNA sequence analysis. One clone which had the expected nucleic acid sequence was selected for expression work.
For expression of hPDHK2 activity, Escherichia coli strain BL21(DE3) cells were transformed with the pET17b vector containing modified hPDHK2 cDNA. The Escherichia coli were grown to an optical density 0.6 ([…]) at 30° C. Protein expression was induced by the addition of 500 μmol/L isopropyl-β-thiogalactopyranoside. The Escherichia coli were cultured at 20° C. for 17-18 hr and harvested by centrifugation. The harvested Escherichia coli was resuspended in a suspension buffer (20 mmol/L HEPES-NaOH, 500 mmol/L sodium chloride, 1% ethylene glycol, 0.1% pluronic F-68 (pH 8.0), cOmplete, EDTA-free (pH 8.0)), and disrupted by a microfluidizer. The precipitate was removed by centrifugation and the supernatant was added to DDDDK-tagged Protein PURIFICATION GEL. DDDDK-tagged Protein PURIFICATION GEL was washed with a washing buffer (20 mmol/L HEPES-NaOH, 500 mmol/L sodium chloride, 1% ethylene glycol, 0.1% pluronic F-68 (pH 8.0)) and the bound protein was eluted with elution buffer 1 (20 mmol/L HEPES-NaOH, 100 μg/mL peptide (amino acid sequence DYKDDDDK) (SEQ ID NO: 1), 500 mmol/L sodium chloride, 1% ethylene glycol, 0.1% pluronic F-68 (pH 8.0)). The eluted fractions containing FLAG-Tagged protein were pooled, concentrated by an ultrafiltration method, added to a gel filtration column (HiLoad 26/60 Superdex 200), and eluted with elution buffer 2 (20 mmol/L HEPES-NaOH, 150 mmol/L sodium chloride, 0.5 mmol/L ethylenediaminetetraacetic acid (EDTA), 1% ethylene glycol, 0.1% pluronic F-68 (pH 8.0)). The eluted fractions were pooled and preserved at −80° C.
as §2, with “PDH” for “PDH (porcine heart PDH complex, Sigma P7032)”, “hPDHK2” for “hPDHK1”, “PDH/hPDHK2” for “PDH/hPDHK1”
The test compounds were diluted with DMSO. To measure an inhibitory action of the test compound on the PDHK activity in the PDH/hPDHK2 complex solution, PDH/hPDHK2 complex solution (20 μL), test compound (1.5 μL) and 1.06 μmol/L ATP (diluted with assay buffer) (8.5 μL) were added to a 384 well microplate and PDHK reaction was performed at room temperature for 45 min (test compound well). DMSO (1.5 μL) was added to control wells instead of test compound. In addition, DMSO (1.5 μL) was added to blank wells instead of the test compound, and PDH solution was added instead of the PDH/hPDHK2 complex solution. To measure an inhibitory action of the test compound on the PDHK activity inherent in the PDH solution, a test compound was added and the PDH solution instead of the PDH/hPDHK2 complex solution was added to a blank+test compound well.
Then, 10 μL of substrates (5 mmol/L sodium pyruvate, 5 mmol/L Coenzyme A, 12 mmol/L NAD, 5 mmol/L thiamine pyrophosphate, diluted with assay buffer) were added. The mixture was incubated at room temperature for 90 min, and the residual PDH activity was measured. […]

Chain of human PDHK1 (hPDHK1) (Q15118 29-436): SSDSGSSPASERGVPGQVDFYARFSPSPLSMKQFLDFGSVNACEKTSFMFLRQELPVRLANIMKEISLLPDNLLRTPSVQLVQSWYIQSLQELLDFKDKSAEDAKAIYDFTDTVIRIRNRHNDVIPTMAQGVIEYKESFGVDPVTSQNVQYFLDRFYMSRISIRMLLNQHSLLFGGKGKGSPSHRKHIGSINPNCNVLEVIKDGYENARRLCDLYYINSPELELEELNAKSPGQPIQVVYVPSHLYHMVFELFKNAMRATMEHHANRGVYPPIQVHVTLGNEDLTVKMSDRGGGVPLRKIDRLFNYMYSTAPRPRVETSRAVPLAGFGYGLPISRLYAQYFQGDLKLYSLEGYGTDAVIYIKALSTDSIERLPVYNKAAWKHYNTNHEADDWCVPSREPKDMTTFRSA

Compound	pIC50 [1]	pIC50 [2]	hPDHK2 inhibitory rate at the lowest concentration of the test compound ([2]; lowest concentration of the test compound in the assay (<3 nmol/L), shown when IC50 value could not be calculated) [%]
C[C@H]1CN(C(=O)c2cc(-c3ccc(F)cc3)nn2C)Cc2cnc([C@@](C)(O)C(F)(F)F)n21 [Example 16, (3-(4-fluorophenyl)-1-methyl-1H-pyrazol-5-yl) ((S)-5-methyl-3-((R)-1,1,1-trifluoro-2-hydroxypropan-2-yl)-5,6-dihydroimidazo[1,5-a]pyrazin-7(8H)-yl)methanone]	8.22	8.15	
C[C@H]1CN(C(=O)c2cnn(-c3ccc(F)cc3)c2C(F)(F)F)Cc2cnc([C@@](C)(O)C(F)(F)F)n21 [Example 17]	8.10	8.15	
C[C@H]1CN(C(=O)c2ccc(C3CC3)cc2)Cc2cnc([C@@](C)(O)C(F)(F)F)n21 [Example 18]	8.15	8.15	
C[C@H]1CN(C(=O)c2c(C#N)c(C3CC3)nn2C)Cc2cnc([C@@](C)(O)C(F)(F)F)n21 [Example 19]	8.30	> 8.52	67
C[C@H]1CN(C(=O)c2cc(C3CCOCC3)nn2C)Cc2cnc([C@@](C)(O)C(F)(F)F)n21 [Example 20]	8.10	7.92	
C[C@H]1CN(C(=O)c2cc(C3CC3)on2)Cc2cnc([C@@](C)(O)C(F)(F)F)n21 [Example 21]	7.89	7.92	
C[C@H]1CN(C(=O)c2c(Cl)c(C3CC3)nn2C)Cc2cnc([C@@](C)(O)C(F)(F)F)n21 [Example 22]	8.22	8.10	
C[C@H]1CN(C(=O)c2ccc(F)c(C3CC3)n2)Cc2cnc([C@@](C)(O)C(F)(F)F)n21 [Example 23]	8.22	7.92	
C[C@H]1CN(C(=O)c2ccc(=O)n(C3CC3)c2)Cc2cnc([C@@](C)(O)C(F)(F)F)n21 [Example 24]	7.38	7.44	
COc1ccc(-c2cc(C(=O)N3Cc4cnc([C@@](C)(O)C(F)(F)F)n4[C@@H](C)C3)no2)cc1 [Example 25]	8.15	7.85	
C[C@H]1CN(C(=O)c2cc(-c3ccc(F)cc3)on2)Cc2cnc([C@@](C)(O)C(F)(F)F)n21 [Example 26]	8.05	7.85	
C[C@H]1CN(C(=O)c2ccc(F)cc2C2CC2)Cc2cnc([C@@](C)(O)C(F)(F)F)n21 [Example 27]	8.05	8.10	
C[C@H]1CN(C(=O)c2ccc(C#N)c(C3CC3)c2)Cc2cnc([C@@](C)(O)C(F)(F)F)n21 [Example 28]	7.92	8.00	
C[C@H]1CN(C(=O)c2cc(C3CC3)nn2C2CC2)Cc2cnc([C@@](C)(O)C(F)(F)F)n21 [Example 29]	8.15	8.15	
C[C@H]1CN(C(=O)c2ccc(C3CC3)nc2)Cc2cnc([C@@](C)(O)C(F)(F)F)n21 [Example 30]	7.70	7.89	
C[C@H]1CN(C(=O)c2cc(-c3ccc(C#N)cc3)nn2C)Cc2cnc([C@@](C)(O)C(F)(F)F)n21 [Example 31]	8.05	7.96	
C[C@H]1CN(C(=O)c2ccnn2C2CC2)Cc2cnc([C@@](C)(O)C(F)(F)F)n21 [Example 32]	7.89	8.00	
C[C@H]1CN(C(=O)c2cc(-c3ccc(C#N)cc3)n(C)n2)Cc2cnc([C@@](C)(O)C(F)(F)F)n21 [Example 33]	7.92	7.80	
C[C@H]1CN(C(=O)c2cc(-c3ccc(F)cc3)n[nH]2)Cc2cnc([C@@](C)(O)C(F)(F)F)n21 [Example 34]	8.00	7.89	
C[C@H]1CN(C(=O)c2cc(-c3ccc(C#N)cc3)nn2C2CC2)Cc2cnc([C@@](C)(O)C(F)(F)F)n21 [Example 35]	8.52	8.40	
C[C@H]1CN(C(=O)c2cc(C3CC3)nn2CC(F)(F)F)Cc2cnc([C@@](C)(O)C(F)(F)F)n21 [Example 36]	8.40	8.30	
C[C@H]1CN(C(=O)c2cc(C3CC3)n(CC(F)(F)F)n2)Cc2cnc([C@@](C)(O)C(F)(F)F)n21 [Example 37]	8.52	8.10	
